Test results published in patent US9133225B2, “Dual targeting anticancer agents” (priority 2013, dated 2015).

Key:
[1] = test system: A549 cells; assay: JC-1 mitochondrial membrane potential assay; type: cell-based; settings: cisplatin or Pt(IV)(α-TOS)(OEt) at 20 μM, 4 hours
Protocol: To investigate the effect of Pt(IV)(α-TOS)(OEt) on mitochondria, changes in the mitochondrial membrane potential were assessed by the JC-1 assay. JC-1 (5,5′,6,6′-tetrachloro-1,1′3,3′-tetraethylbenzimidazolylcarbocyanine iodide) is a positively charged lipophilic dye, which accumulates in the mitochondria of healthy cells as red-emitting aggregates. When the mitochondrial membrane is compromised, JC-1 de-aggregates into monomeric forms that emit green fluorescence. […] These findings were confirmed using flow cytometry. A large population of untreated and Pt(IV)(α-TOS)(OEt)-treated A549 cells were examined.
In order to monitor the cell cycle, flow cytometry studies were carried out. A549 cells were incubated with and without the test compounds for 24 and 48 h at 37° C. Cells were harvested from adherent cultures by trypsinization and combined with all detached cells from the incubation medium to assess total cell viability. Following centrifugation at 1000 rpm for 5 min, cells were washed with PBS and then fixed with 70% ethanol in PBS. Fixed cells were collected by centrifugation at 2500 rpm for 3 min, washed with PBS and centrifuged as before. Cellular pellets were re-suspended in 50 μg/mL propidium iodide (Sigma) in PBS for nucleic acids staining and treated with 100 μg/mL RNaseA (Sigma). DNA content was measured on a FACSCalibur-HTS flow cytometer (BD Biosciences) using laser excitation at 488 nm and 20,000 events per sample were acquired. Cell cycle profiles were analysed using the ModFit software. For the apoptosis experiments, the Annexin V-FITC Early Apoptosis Detection Kit (Cell Signaling Technology) was used. […] The samples were kept on ice prior to being read on the FACSCalibur-HTS flow cytometer (BD Biosciences) (20,000 events per sample were acquired). Cell populations were analysed using the FlowJo software (Tree Star). […] The cells were incubated for 30 min, harvested, and analysed by using the FACSCalibur-HTS flow cytometer (BD Biosciences) (20,000 events per sample were acquired). […] Cell populations were analysed using the FlowJo software (Tree Star).

[2] = test system: A2780 ovarian carcinoma cells; assay: MTT cytotoxicity assay, A2780
Source text: (§1) (a) Dulbecco's Modified Eagle Medium (DMEM), Dulbecco's phosphate buffered saline (DPBS), fetal bovine serum (FBS) and 0.25% trypsin/EDTA solutions were purchased from Cellgro (Manassas, Va.). Penicillin-streptomycin solutions were purchased from Mediatech (Manassas, Va.). (b) HeLa (CCL-2TM) cells, A549, A2870, A2870/CP70, MCF-7, PC-3, and MRC-5 cells were purchased from American Type Culture Collection (ATCC, Manassas, Va., USA). (c) HCT116 cells were kindly donated by Laura Trudel (MIT). HeLa, A549, MCF-7, and MRC-5 cells were cultured using DMEM supplemented with 10% FBS and 1% penicillin-streptomycin. A2870, A2870/CP70, and PC-3 cells were cultured in RPMI supplemented with 10% FBS and 1% penicillin-streptomycin. HCT116 cells were cultured in McCoy's supplemented with 10% FBS and 1% penicillin-streptomycin. All cell-culture experiments were performed in the aforementioned media in an incubator operating at 37° C. and in the presence of a humidified atmosphere containing 5.0% CO2. Cells were harvested using a 0.25% trypsin/EDTA solution.
(§2) The cytotoxicity of the compounds was assessed by means of the MTT assay (MTT=3-(4,5-dimethyl-2-thiazolyl)-2,5-diphenyl-2H-tetrazolium bromide). Typically, on day one, ˜1×10^3 cells were seeded into 96-well plates in 100 μL media per well. […] The optical density for each well at 550 nm was measured with a microplate reader.

[3] = test system: MRC-5 non-tumorigenic lung fibroblast cells; assay: in vitro
Source text: as §1
(§3) The cytotoxicity of the compounds was assessed by means of the MTT assay (MTT=3-(4,5-dimethyl-2-thiazolyl)-2,5-diphenyl-2H-tetrazolium bromide). Typically, on day one, ˜1×10^3 cells were seeded into 96-well plates in 100 μL media per well. The last row of the plate was left empty as a control for background absorption. The cells were allowed to grow for 24 h in the incubator at 37° C. On day two, a series of drug dilutions in growth media were prepared immediately prior to cell treatment. The media in the wells of the 96 plates were replaced with 100 μL of growth media containing appropriate drug concentrations. The cells were treated for 48 h at 37° C. in the incubator. On day four, a stock solution of MTT (5 mg/mL in PBS buffer) was diluted with media so that, when 100 μL of the media was added to each well, 10 μL of MTT stock was applied. The cells were incubated for 2 h and then all the media was replaced with 100 μL of DMSO to dissolve the purple MTT-formazan crystals. The optical density for each well at 550 nm was measured with a microplate reader.

[4] = test system: MCF-7 cells; assay: MTT cytotoxicity assay, MCF-7
Source text: as §1
as §3, with “The cells were incubated for 2 h and then all the media was replaced with 100 μL of DMSO to dissolve the purple MTT-formazan crystals.” left out

[5] = test system: PC-3 cells; assay: MTT cytotoxicity assay, PC-3
Source text: as §1
as §3, with “The cells were incubated for 2 h and then all the media was replaced with 100 μL of DMSO to dissolve the purple MTT-formazan crystals.” left out

[6] = test system: HCT116 cells; assay: MTT cytotoxicity assay, HCT116
Source text: as §1
as §3, with “The cells were incubated for 2 h and then all the media was replaced with 100 μL of DMSO to dissolve the purple MTT-formazan crystals.” left out

[7] = test system: A549 cells; assay: MTT cytotoxicity assay, A549
Source text: as §1, §2

[8] = test system: HeLa cells; assay: MTT cytotoxicity assay, HeLa
Source text: as §1, §2

[9] = biological target: T1, Bcl-xL-Bax interactions (Homo sapiens, UniProt Q07817); assay: Co-immunoprecipitation of Bcl-xL, probed for Bax; type: cell-based; settings: A549 cells, respective IC50 values, 48 h
T1 construct: endogenous in cells; host or cells: A549
T1 sequence (Q07817 whole entry): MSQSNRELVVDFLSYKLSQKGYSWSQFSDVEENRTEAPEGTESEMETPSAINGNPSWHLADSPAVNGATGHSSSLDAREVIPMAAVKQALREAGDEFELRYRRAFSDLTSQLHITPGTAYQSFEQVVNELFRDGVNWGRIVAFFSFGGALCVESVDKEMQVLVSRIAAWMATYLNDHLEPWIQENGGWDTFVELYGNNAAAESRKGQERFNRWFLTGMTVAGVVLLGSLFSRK
Protocol: (§4) α-TOS is known to disrupt Bcl-xL-Bax interactions, activate Bax, and thus mediate mitochondrial centered apoptotic cell death. Co-immunoprecipitation studies were carried out to determine whether the Pt(IV)-α-TOS conjugates could behave in a similar manner. […] Additional immunoblotting studies were carried to determine the effect of Pt(IV)(α-TOS)(OEt) treatment on transcription. […] Overall Pt(IV)(α-TOS)(OEt) was able to (1) downregulate Bcl-xL expression and (2) inhibit the interaction of Bcl-xL with Bax, a prerequisite for mitochondrial dysfunction. The former is inherent to cisplatin but not α-TOS, and the latter was inherent to α-TOS but not cisplatin.
A549 cells (5×10^5 cells) were incubated with test compound for 48 h at 37° C. […] The resultant cell lysate was treated with protein A-agarose bead slurry (50 μL) and centrifuged to remove proteins that bind non-specifically. Anti Bcl-XL antibody (Cell Signalling Technology) was added to the lysate and incubated for 2 h at room temperature. Protein A-agarose bead slurry (50 μL) was added and the mixture was incubated at 4° C. overnight. Centrifugation allowed separation of the immunocomplex, which was washed with cold RIPA buffer (3×500 μL). The immunocomplex was then suspended in SDS-PAGE loading buffer (50 μL) and incubated at 95° C. for 10 min. The solution containing the immunocomplex was isolated by centrifugation and then analysed for Bax content using the immunoblotting analysis protocol described above.

[10] = test system: A2780/CP70 cells (CisPt resistant); assay: MTT cytotoxicity assay, A2780/CP70
Source text: as §1, §2

[11] = in vitro; settings: human
Source text: as §1, §3

[12] = test system: Bcl-xL; assay: Immunoblotting analysis of Bcl-xL expression; type: cell-based; settings: A549 cells
Protocol: as §4
A549 cells (5×10^5 cells) were incubated with test compound for 48 h at 37° C. Cells were washed with PBS, scraped into SDS-PAGE loading buffer (64 mM Tris-HCl (pH6.8)/9.6% glycerol/2% SDS/5% β-mercaptoethanol/0.01% Bromophenol Blue) and incubated at 95° C. for 10 min. Whole cell lysates were resolved by 4-20% sodium dodecylsulphate polyacylamide gel electrophoresis (SDS-PAGE; 200 V for 1 h) followed by electro transfer to polyvinylidene difluoride membrane, PVDF (350 mA for 1 h). Membranes were blocked in 5% (w/v) non-fat milk in PBST (PBS/0.1% Tween 20) and incubated with the appropriate primary antibodies (Cell Signalling Technology and Santa Cruz). After incubation with horseradish peroxidase-conjugated secondary antibodies (Cell Signalling Technology), immune complexes were detected with the ECL detection reagent (BioRad) and analysed using an Alpha Innotech ChemiImager™ 5500 fitted with a chemiluminescence filter.

[13] = test system: A2780 ovarian cancer cells; assay: PI-annexin-V dual staining apoptosis assay; type: cell-based; settings: 10 μM for 48 hours
[14] = test system: all cell lines; assay: MTT cytotoxicity assay, across the cell lines; type: cell-based; settings: all cell lines; MTT; read-out: IC50 against all cell lines
Source text: as §1, §2

**Q.** Which “JC-1 fluorescence (mitochondrial membrane disruption), microscopy” value [1] does the source give for N#CC(C#N)=NNc1cccc(Cl)c1 [CCCP, carbonyl cyanide m-chlorophenyl hydrazone, reference compound] here?
**A.** The value was “increased green fluorescence and diminished red fluorescence”.

**Q.** For Cc1c(C)c2c(c(C)c1OC(=O)CCC(=O)O)CC[C@@](C)(CCC[C@H](C)CCC[C@H](C)CCCC(C)C)O2 [α-TOS, α-tocopherol succinate, reference compound], which IC50 [2] is on record?
**A.** Its IC50 is 13.8 µM.

**Q.** And the IC50 [3]?
**A.** Its IC50 is 28.5 µM.

**Q.** And the IC50 [4]?
**A.** Its IC50 is 40.5 µM.

**Q.** And the IC50 [5]?
**A.** Its IC50 is 37 µM.

**Q.** What about the IC50 [6] of the same molecule?
**A.** The IC50 was 31.2 µM.

**Q.** And the IC50 [7]?
**A.** Its IC50 is 26.9 µM.

**Q.** What about the IC50 [8] of the same molecule?
**A.** The IC50 was 25.1 µM.

**Q.** What about the “Bcl-xL-Bax interaction (Bax associated to the Bcl-xL immunoprecipitate)” value [9] of the same molecule?
**A.** Its value is “markedly lower than the untreated control”.

**Q.** And the IC50 [10]?
**A.** The IC50 was 21.7 µM.

**Q.** Which results are given for Cc1c(C)c2c(c(C)c1OC(=O)CCC(=O)[O][Pt]([NH2])([NH2])([Cl])([Cl])[O]C(=O)CCC(=O)Oc1c(C)c(C)c3c(c1C)CCC(C)(CCCC(C)CCCC(C)CCCC(C)C)O3)CCC(C)(CCCC(C)CCCC(C)CCCC(C)C)O2 (stereo not drawn) [Pt(IV)(α-TOS)2]?
**A.** IC50 at 48 h [11]: 80.5 µM; Bcl-xL expression [12]: A similar trend was observed; Bcl-xL-Bax interaction (Bax associated to the Bcl-xL immunoprecipitate) [9]: less affected

**Q.** Which “cells displaying apoptotic properties” value [13] does the source give for N.N.[Cl][Pt][Cl] [cisplatin, reference compound] here?
**A.** Its value is 10%.

**Q.** And the Bcl-xL expression [12]?
**A.** Its Bcl-xL expression is “A similar trend was observed”.

**Q.** What about the “Bcl-xL-Bax interaction (Bax associated to the Bcl-xL immunoprecipitate)” value [9] of the same molecule?
**A.** The value was “less affected”.

**Q.** What does the source list for CC(=O)[O][Pt]([NH2])([NH2])([Cl])([Cl])[O]C(C)=O [Pt(IV)(OAc)2]?
**A.** IC50 [14]: > 100 µM; IC50 [3]: > 100 µM; IC50 [4]: > 100 µM; IC50 [5]: > 100 µM; IC50 [6]: > 100 µM; Bcl-xL expression [12]: A similar trend was observed; Bcl-xL-Bax interaction (Bax associated to the Bcl-xL immunoprecipitate) [9]: less affected
